Source: patent US11066421B1, “Synthetic cinchona alkaloids against cancer” (Ares Pharmaceuticals, LLC, priority 2021, dated 2021)
“Also recorded” adds a separate entry of the source.

What was measured:
BT-20 = assay: Confocal laser scanning microscopy apoptosis, BT-20; format: cell-based, human; conditions: 100 nM, 48 hours
Procedure: Confocal Laser Scanning Microscopy. Cells were treated with cinchona alkaloids or PBS in culture medium for 48 hours. After 48 hr of culture, cells were co-stained with a rabbit polyclonal antitubulin antibody (Green Fluorescence) and the DNA-specific dye Toto-3 (Blue Fluorescence) and examined by laser scanning confocal microscopy using a Bio-Rad MRC-1024 Laser Scanning Confocal Microscope equipped with a Kr/Ar laser (Bio-Rad, Hercules, Calif., USA) mounted on a Nikon Eclipse E800 upright microscope with high numerical aperture objectives (Nikon, Melville, N.Y., USA), as described (F. M. Uckun, et al., 2010, Proc. Natl. Acad. Sci. USA, 107: 2902-7; F. M. Uckun., et al., 2010, British Journal of Haematology, 149: 508-17; F. M. Uckun, et al., 2013, Blood. 121:4348-54; F. M. Uckun et al., 2010, Proc. Natl Acad. Sci. USA 107:16852-57; F. M. Uckun et al., 2012, Proc. Natl Acad. Sci. USA 109:18072-77). Cell lines. BT-20 (ATCC HTB-19), a triple negative breast cancer cell line, PC-3 (ATCC CRL-1435) a CRPC cell line (small cell endocrine carcinoma) derived from a Stage IV prostate cancer patient with bone metastases were obtained from American Type Culture Collection (ATCC) (Manassas, Va.). […] Cells were washed in PBS and counterstained with the DNA-specific dye TOTO-3 (blue fluorescence) (Molecular Probes Inc., Eugene, Oreg.) for 10 min at a dilution of 1:1000. […]

[1] = system: mammary tumors of MMTV/neu transgenic mice; assay: MMTV/neu transgenic mouse model of HER2+ breast cancer; format: in vivo; conditions: 9-week observation; AP-8 2 mg/kg i.p. twice daily; paclitaxel 6.7 mg/kg; gemcitabine 33.7 mg/kg
Text: The predictive value of genetically engineered mouse (GEM) models to predict the clinical effectiveness of anti-cancer drugs is well established (Richmond A, Su Y. Mouse xenograft models vs GEM models for human cancer therapeutics. Dis Model Mech. 2008; 1(2-3):78-82. doi:10.1241-2/dmm.0.000976). We used the transgenic mouse model of HER2+ chemotherapy-resistant breast cancer to examine the in vivo anti-cancer activity of AP-8. Overexpression of the wild type Neu in the mammary glands of transgenic mice induces metastatic breast cancer. Accordingly, in the MMTV/Neu transgenic strain, the wild-type neu is overexpressed in the mammary gland under the control of the MMTV long terminal repeat. This animal model has been used to analyze the efficacy of new therapeutic approaches to prevent or treat Her2/neu overexpressing malignancies (Uckun, Dibirdik). MMTV/Neu transgenic mice [FVB/N-TgN(MMTV/neu)202MUL; Jackson Laboratory, Bar Harbor, Me.] were bred to produce multiple litters in a controlled SPF environment (12 h light/12 h-dark photoperiod, 22±1° C., 60±10% relative humidity). All mice were housed in microisolator cages (Lab Products, Inc., Maywood, N.Y., USA) containing autoclaved bedding in a controlled specific pathogen-free (SPF) environment (12 h light/12 h-dark photoperiod, 22±1° C., 60±10% relative humidity). Animal studies were approved by the institutional Animal Care and Use Committee of Drug Discovery Enterprises and all animal care procedures conformed to the Guide for the Care and Use of Laboratory Animals of the National Research Council. The genotype of mice was confirmed by multiplex polymerase chain reaction (PCR) tests as previously reported (F. M. Uckun et al., 2007, Bioorganic Med. Chem. 15:800-14; I. Dibirdik et al., 2010, J Nanomed and Nanotechnol. 1:001-4).
Neu transgenic mice carrying one or more tumors were randomly placed in the study. For the evaluation of tumor kinetics, tumor-bearing mice were randomly assigned to either vehicle control or treatment groups. Tumor growth was determined by the measurement of tumors with a caliper in three dimensions three days a week and expressed as tumor volume in cubic millimeters (mm^3). Tumor volumes were calculated using the formula for the volume of a prolate spheroid, V=4/3×3.14×length/2×width/2×depth/2. Due to the large heterogeneity in transgenic tumor volumes on day 0, tumor growth for each mouse was normalized to the starting volume for that particular tumor. Therefore, each mouse also served as its own control, and the tumor growth curves were generated to show the rate of change in tumor volumes.
AP-8 (50 μg˜2 mg/kg in 50 μL DMSO as vehicle) (10 mice, 12 target mammary tumors, Initial average tumor volume=787±125 mm^3) was administered by twice daily intraperitoneal injections on 5 consecutive days per week. Paclitaxel (10 mice, 13 target mammary tumors, Initial average tumor volume=554±79 mm^3) was administered intraperitoneally on days 1, 3, and 5 of each week at a dose level of 6.7 mg/kg ([…]). Gemcitabine (13 mice, 18 target mammary tumors, Initial average tumor volume=549±60 mm^3) was administered intraperitoneally on days 1 and 8 every 4 weeks at a dose level of 33.7 mg/kg (˜1 g/m^2). Control mice (8 mice, 10 mammary tumors, Initial average tumor volume=293±61 mm^3) were treated by twice daily intraperitoneal injections of vehicle alone (50 μL DMSO) on 5 consecutive days per week. […]

Molecule | signs of apoptosis by confocal imaging (BT-20) | tumor shrinkage and tumor growth [1]
2,4,6-Tri (9-O-dihydrocinchoninyl)pyrimidine [AP-5] | virtually all of the BT-20 or PC-3 cells treated with AP-5 showed signs of advanced apoptosis; also recorded: virtually all of the BT-20 cells treated with AP-5 showed signs of advanced apoptosis | 
CCC1CN2CCC1CC2C(Oc1cc(OC(c2ccnc3ccc(OC)cc23)C2CC3CCN2CC3CC)nc(OC(c2ccnc3ccc(OC)cc23)C2CC3CCN2CC3CC)n1)c1ccnc2ccc(OC)cc12 (centres unmarked) [AP-8, 2,4,6-Tri (9-O-dihydroquinidinyl)pyrimidine] |  | caused shrinkage of the tumor, completely arrested the tumor growth for 4 weeks, and markedly delayed the tumor progression between 4 weeks and 9 weeks
